The values below come from patent US20170071918A1 (THE UNIVERSITY OF HONG KONG, priority 2015, published 2017).

Values joined by “and” are separate entries in the source; they are usually repeats but may differ in a detail not shown here. Identical values can stand only once.

One data set deals with CD47 expression. Description: Flow cytometric analysis of cell-surface CD47. It counts as cell-based, human. The procedure:
Phycoerythrin (PE)-conjugated CD47 (BD PharMingen, San Jose, Calif.), APC-conjugated CD133 (MACS Miltenyi Biotec), FITC-conjugated CD24 (MACS Miltenyi Biotec), FITC-conjugated EPCAM (Becton Dickinson), were incubated in phosphate-buffered saline (PBS) containing 2% fetal bovine serum (FBS) for 30 minutes at 4° C. Isotype-matched mouse immunoglobulins served as controls. The samples were analyzed using a Canto II flow cytometer and FACSdiva software (BD Biosciences, San Jose, Calif.).
A general note: A flow cytometer gives signals particle by particle.

Data set [1] has as its system NF-κB (nuclear p65 (Ser536), cytosolic p-IκBα (Ser32/36)). Description: Western blotting of NF-κB activation. Type of data set: cell-based, human. The procedure: upon lysis with Buffer A (0.5 mM DTT, 10 mM HEPES, 10 mM KCl 1.5 mM MgCl2, pH7.9) for 15 minutes on ice and 0.5% NP-40 was added before extraction by centrifugation. The remaining pellet was treated with RIPA buffer (50 mM Tris-HCl pH7.4, 1% NP-40, 0.05% SDS 150 mM NaCl, 1 mM EDTA) for 30 minutes on ice and the nuclear fraction was obtained by centrifugation.
Western blots were developed using an ECL Plus kit (Amersham Biosciences, Piscataway, N.J.). The primary antibodies included mouse anti-human p65 (Ser536), mouse anti-human p-Akt (Ser473), anti-human p-Erk (Thr202/Tyr204), rabbit anti-human Bcl-2, rabbit anti-human cleaved caspase-9, rabbit anti-human cleaved PARP, mouse anti-human p-IκBα (Ser32/36) (Cell Signal Technology) and mouse anti-human α-tubulin, rabbit anti-human Bax, rabbit anti-human SP1 (PEP2) (Santa Cruz Technology, Santa Cruz, Calif.). After washing, the membrane was incubated with horseradish peroxidase-conjugated anti-mouse or rabbit antibody (Amersham) and then visualized with enhanced chemiluminescence plus according to the manufacturer's protocol.
On the technique in general: A western blot detects proteins with antibodies after separation by electrophoresis.

For the next data set, the system named is NF-κB promoter activity. Kind of data set: Luciferase reporter assay, NF-κB promoter. Type of data set: cell-based, human. The method, then:
(§1) NF-κB promoter plasmid pNF-κB-Luc or CD47 luciferase promoter plasmid were transfected together with pRL-cytomegalovirus as normalization using Lipofectamine 2000 (Thermo Fisher Scientific). Cell were incubated for 48 hours prior to detection by Dual-Luciferase Reporter Assay System Kit (Promega) according to manufacterer's protocol. Gaussia Luciferase Assay Kit (GeneCopoeia) was used for CD47 detection. Samples were detected with Infinite F200 Tecan Multiplate reader (Tecan Austria GmbH).
Background: A reporter such as luciferase makes a cellular process visible.

Data set [2] deals with NF-κB binding to the CD47 promoter. Description: ChIP-qPCR assay of NF-κB occupancy on the CD47 promoter. It counts as cell-based, human. The procedure:
The cells were processed for ChIP assays according to Upstate CHIP protocol. Briefly, cells were cross-linked for 10 min with 1% formaldehyde and lysed. Lysate pellets were resuspended and sonicated with a Microson sonifier XL-2000 (Misonix) for 10 cycles (ON/OFF 30 seconds; amplitude 10 microns). Protein-DNA complexes were immunoprecipitated using p65 (C-20) antibody (Santa Cruz Technology, Santa Cruz, Calif.) or Normal rabbit IgG (Thermo Fisher Scientific, Rockford, Ill.) bound to protein A agarose, eluted, and digested with proteinase K. For qPCR analysis of the ChIP DNA samples before amplicon generation, QIAquick-purified immunoprecipitates were dissolved in 30 μl of water. Standard PCR reactions using […] of the immunoprecipitated DNA were performed with a SYBR Green PCR kit (Applied Biosystems) using primers which generates a PCR amplicon flanking −564 and -1740 base pairs upstream of the NM 001777 (CD47) transcription start site based on bioinformatics analysis on the Human Genome Build from the UCSC Genome Browser February 2009 (GRCh37/hg19) Assembly. Calculation of NF-κB occupancy on the CD47 promoter was performed according to the ChIP-qPCR primer assay data analysis template from Superarray Bioscience (Frederick, Md.).

For a further data set, the system named is CD47 promoter activity. Description: Luciferase reporter assay, CD47 promoter. It counts as cell-based, human. The procedure:
as §1

Data set [3] deals with Huh-7 cells (mock-treated and sorafenib-resistant). Description: Annexin V staining apoptosis assay, Huh-7. It counts as cell-based, human. The method, then: (§2) Cells were stained in binding buffer, proipidium iodide (PI) and FITC-conjugated Annexin V as provided by the Annexin-V-FLUO+S Staining Kit (Roche Diagnostics) according to manufacturer's instructions. Analysis was determined using a Canto II flow cytometer and FACSdiva software (BD Biosciences).

Data set [4] relates to Bel-7402 cells (mock-treated and sorafenib-resistant). Description: Annexin V staining apoptosis assay, Bel-7402. It counts as cell-based, human. The procedure: as §2
Another data set concerns PDTX#5 tumor tissues. Kind of data set: TUNEL assay of apoptotic nuclei in PDTX#5 tumors. It counts as in vivo, mice. As to conditions: tumors harvested day 31. The procedure: The TUNEL assay was performed to detect apoptotic cells using in situ cell death detection kit (Roche Diagnostics, Indianapolis, Ind.). Briefly, paraffin-embedded tissues were fixed with 15 μg/mL proteinase K in 10 mM Tris/HCl at pH 7.4. The slides were then incubated with the TUNEL reaction mixture for 1 h at 37° C. After washing, the slides were incubated with a horseradish peroxidase-conjugated anti-fluorescein antibody for 30 min at 37° C. Stained slides were imaged on an Aperio Scanscope® CS imager (Vista, Calif.), generating 0.43 μm/pixel whole slide images. These images were compiled, and number of apoptotic nuclei was quantitated using the Aperio Spectrum® software with a pixel count algorithm.

The test system of data set [5] is patient-derived HCC tumor xenografts (PDTX#1 and PDTX#5). Kind of data set: Sorafenib treatment of PDTX#1 and PDTX#5 xenografts (in vivo selection). As to conditions: sorafenib 100 mg/kg oral for 31 days; NOD-SCID mice. The source says:
Using this in vivo treatment, we enriched the proportion of sorafenib-resistant HCC cells in residual tumors.

In data set [6] the test system is mock-treated and sorafenib-resistant HCC cells (Bel-7402 and Huh-7). Kind of data set: XTT cell proliferation assay. The settings on record: sorafenib 5 to 25 μM, 48 h; mock-treated vs sorafenib-resistant cells. It counts as cell-based, human. The procedure:
After 48 h, (2,3-Bis-(2-Methoxy-4-Nitro-5-Sulfophenyl)-2H-Tetrazolium-5-Carboxanilide) (XTT) dye, at a concentration of 5 mg/mL (Sigma-Aldrich, St Louis, Mo.), was added and the plates were incubated for 12 h in a moist chamber at 37° C. Optical density was determined by eluting the dye with dimethyl sulfoxide (Sigma-Aldrich) and the absorbance was measured at 570 nm. At least three independent experiments were performed.

The next data set concerns MHCC97L cells. Description: Annexin V staining apoptosis assay, MHCC97L. It counts as cell-based, human. The settings on record: sorafenib 10 μM; MHCC97L shCD47 vs control. The procedure: as §2
For a further data set, the target named is CD47 (human) (UniProt Q08722). Kind of data set: cell-based or functional assay.
Setting [7] is: TNF-α 20 ng/mL, PLC/PRF/5 and Bel-7402 cells.
The mark [8] stands for this setting: TNF-α for 1 hour, Bel-7402 and PLC/PRF/5 cells.
[9] abbreviates: IMD-0354, Huh-7 and MHCC97L cells.

Turning to TNF-α, the “CD47 expression on the surface of HCC cells” value with CD47 expression (setting [7]) was “increase in CD47 expression”. For the same molecule, in data set [1] (setting [7]), the “NF-κB activation (nuclear p65 (Ser536) and cytosolic p-IκBα (Ser32/36))” value is recorded as “successfully induced NF-κB activation”. Moreover, the NF-κB promoter activity result in the data set on NF-κB promoter activity (setting [8]) is recorded as “increase in NF-κB promoter activity”. Also, the “Fold enrichment of NF-κB binding relative to background” value was 2.5 fold in [2] (Bel-7402 cells, site 1, 20 ng/mL TNF-α, 1 hour before fixation (untreated 1.5-fold)) and 2.5 fold in data set [2] (Bel-7402 cells, site 2, 20 ng/mL TNF-α, 1 hour before fixation (untreated 1.6-fold)). For the same molecule, the CD47 promoter activity entry in the data set with CD47 promoter activity (setting [8]) is on record as “corresponding increase in CD47 promoter activity”.
As for `O=C(Nc1cc(C(F)(F)F)cc(C(F)(F)F)c1)c1cc(Cl)ccc1O` [IMD-0354], in the data set on CD47 expression (IMD-0354, MHCC97L and Huh-7 cells), the “Cell-surface expression of CD47” value is reported as “reduction in cell-surface expression of CD47”. Further, the “NF-κB activation (phosphorylation of p65 and IκBα)” value in data set [1] (IMD-0354 at 1 μM in Huh-7 and 3 μM in MHCC97L cells) is “effectively suppressed NF-κB activation”. Also, in the data set on NF-κB promoter activity (setting [9]), the NF-κB promoter activity entry is listed as “significantly down-regulated”. The “Fold enrichment of NF-κB binding relative to background” value in data set [2] (Huh-7 cells, site 1, 1 μM IMD-0354 for 24 hours (untreated 1.4-fold)) came out at 1.1 fold; in [2] (Huh-7 cells, site 2, 1 μM IMD-0354 for 24 hours (untreated 1.8-fold)), 0.9 fold; in data set [2] (MHCC97L cells, site 1, 3 μM IMD-0354 for 24 hours (untreated 4.3-fold)), 1.4 fold; in [2] (MHCC97L cells, site 2, 3 μM IMD-0354 for 24 hours (untreated 2.8-fold)), 1.5 fold. Also, the “Toxic effects on cells” value in data set [3] (0.05 μM IMD-0354, Huh-7) is recorded as “no toxic effects”; in data set [4] (0.5 μM IMD-0354, Bel-7402) it was “no toxic effects”. Also, the Sensitization to sorafenib entry in [3] (0.05 μM IMD-0354 cotreatment with sorafenib, Huh-7) is listed as “sensitized”; in data set [4] (0.5 μM IMD-0354 cotreatment with sorafenib, Bel-7402), “sensitized”. Further, the “Annexin V-positive (apoptotic) cells” value is listed as 50.2% in [3] (sorafenib plus IMD-0354, mock-treated Huh-7); 33.9% in [3] (sorafenib plus IMD-0354, sorafenib-resistant Huh-7); 30.8% in data set [4] (sorafenib plus IMD-0354 at 0.5 μM, mock-treated Bel-7402); 32.9% in data set [4] (sorafenib plus IMD-0354 at 0.5 μM, sorafenib-resistant Bel-7402). In addition, in the data set on CD47 promoter activity (setting [9]), the CD47 promoter activity entry is recorded as “significantly down-regulated”.
On to `CNC(=O)c1cc(Oc2ccc(NC(=O)Nc3ccc(Cl)c(C(F)(F)F)c3)cc2)ccn1` [sorafenib], for which the “Percentage of apoptotic nuclei in tumor tissues (TUNEL)” value with PDTX#5 tumor tissues was “higher”. Also, the “Effect on xenograft tumors” value in data set [5] is “tumor inhibition”. Moreover, the “Growth-suppressive effect on cell proliferation” value in data set [6] is given as “significantly greater in mock-treated cells”. The “Sensitivity of cells to sorafenib after CD47 knockdown” value in the data set with MHCC97L cells is reported as “increased the sensitivity of cells to sorafenib”; in [3] (sorafenib 10 μM, Huh-7 shCD47 vs control) it was “increased the sensitivity of cells to sorafenib”. Also, the “Annexin V-positive (apoptotic) cells” value in [3] (sorafenib alone, mock-treated Huh-7) is 37.7% and 43.0%; in data set [3] (sorafenib alone, sorafenib-resistant Huh-7) it was 28.4% and 35.1%; in data set [3] (sorafenib, mock-treated Huh-7, after CD47 knockdown), 57.9%; in data set [3] (sorafenib, mock-treated Huh-7, before CD47 knockdown (nontarget control)) it was 48.8%; in [3] (sorafenib, sorafenib-resistant Huh-7, after CD47 knockdown), 56.9%; in data set [3] (sorafenib, sorafenib-resistant Huh-7, before CD47 knockdown (nontarget control)), 38.8%. For the same molecule, the “Annexin V-positive (apoptotic) cells” value in data set [4] (sorafenib 15 μM, mock-treated Bel-7402, after CD47 knockdown) was 38%; in [4] (sorafenib 15 μM, mock-treated Bel-7402, before CD47 knockdown (nontarget control)), 25.2%; in data set [4] (sorafenib 15 μM, sorafenib-resistant Bel-7402, after CD47 knockdown), 37.6%; in [4] (sorafenib 15 μM, sorafenib-resistant Bel-7402, before CD47 knockdown (nontarget control)), 19.1%; in [4] (sorafenib alone, mock-treated Bel-7402), 29.0%; in data set [4] (sorafenib alone, sorafenib-resistant Bel-7402), 14.9% and 13.2%.

B1: Monoclonal antibody against CD47 (B6H12) (antibody, from another filing, V domains shown)
VH: EVQLVESGGDLVKPGGSLKLSCAASGFTFSGYGMSWVRQTPDKRLEWVATITSGGTYTYYPDSVKGRFTISRDNAKNTLYLQIDSLKSEDTAIYFCARSLAGNAMDYWGQGTSVTVSS
VL: DIVMTQSPATLSVTPGDRVSLSCRASQTISDYLHWYQQKSHESPRLLIKFASQSISGIPSRFSGSGSGSDFTLSINSVEPEDVGVYYCQNGHGFPRTFGGGTKLEIK
Regarding B1, in the data set with CD47 (human), the sorafenib sensitivity, mock-treated Bel-7402 cells, without to with anti-CD47 antibody at 2 µg/mL lay within 29 to 37.6%; the sorafenib sensitivity, mock-treated Huh-7 cells, without to with anti-CD47 antibody at 2 µg/mL lay in the range of 43 to 48.5%; the sorafenib sensitivity, sorafenib-resistant Bel-7402 cells, without to with anti-CD47 antibody at 2 µg/mL is 13.2 to 38.4%; the sorafenib sensitivity, sorafenib-resistant Huh-7 cells, without to with anti-CD47 antibody at 2 µg/mL is 35.1 to 39.3%.
